US6737383B1, “Herbicidal oxadiazolidines” (priority 1999, dated 2004)

Tests used:
bedstraw = assay: Test B pre/postemergence bedstraw; assay type: in vivo, Galium aparine
Outline: (§1)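 Test chemicals in a non-phytotoxic solvent mixture with surfactant were sprayed preemergence onto planted seeds and postemergence onto plants 2 to 18 cm tall (1- to 4-leaf stage). After twelve to sixteen days in a greenhouse, injury was visually rated against untreated controls from 0 (no effect) to 10 (complete control).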

blackgrass = assay: Test B pre/postemergence blackgrass; assay type: in vivo, Alopecurus myosuroides
Outline: as §1

surinam grass = assay: Test B pre/postemergence surinam grass; assay type: in vivo, Brachiaria decumbens
Outline: as §1

cocklebur = assay: Test B pre/postemergence cocklebur; assay type: in vivo, Xanthium strumarium
Outline: as §1

corn = assay: Test B pre/postemergence corn; assay type: in vivo, Zea mays
Outline: as §1

crabgrass = assay: Test B pre/postemergence crabgrass; assay type: in vivo, Digitaria sanguinalis
Outline: as §1

giant foxtail = assay: Test B pre/postemergence giant foxtail; assay type: in vivo, Setaria faberii
Outline: as §1

morningglory = assay: Test B pre/postemergence morningglory; assay type: in vivo, Ipomoea hederacea
Outline: as §1

pigweed = assay: Test B pre/postemergence pigweed; assay type: in vivo, Amaranthus retroflexus
Outline: as §1

rape = assay: Test B pre/postemergence rape; assay type: in vivo, Brassica napus
Outline: as §1

soybean = assay: Test B pre/postemergence soybean; assay type: in vivo, Glycine max
Outline: as §1

velvetleaf = assay: Test B pre/postemergence velvetleaf; assay type: in vivo, Abutilon theophrasti; conditions: for Plant response rating, Velvetleaf: Rate 250 g/ha
Outline: as §1

wheat = assay: Test B pre/postemergence wheat; assay type: in vivo, Triticum aestivum; conditions: for Plant response rating, Wheat: Rate 250 g/ha
Outline: as §1

wild oat = assay: Test B pre/postemergence wild oat; assay type: in vivo, Avena fatua; conditions: for Plant response rating, Wild oats: Rate 250 g/ha
Outline: as §1

purple nutsedge = assay: Test B pre/postemergence purple nutsedge; assay type: in vivo, Cyperus rotundus
Outline: as §1

[1] = Postemergence, Rate 62 g/ha, scale 0 to 10, 0 is no effect, 10 is complete control
[2] = Postemergence, Rate 250 g/ha, scale 0 to 10, 0 no effect, 10 complete control
[3] = Preemergence, Rate 62 g/ha, scale 0 to 10 (0 no effect, 10 complete control)
[4] = Preemergence, Rate 125 g/ha, scale 0 to 10 (0 no effect, 10 complete control)
[5] = Preemergence, Rate 250 g/ha, scale of 0 to 10 where 0 is no effect and 10 is complete control
[6] = Preemergence, Rate 500 g/ha, scale 0 to 10 (0 no effect, 10 complete control)
[7] = Rate 125 g/ha, Postemergence, scale 0 to 10, 0 no effect, 10 complete control
[8] = Rate 500 g/ha, Postemergence, scale 0 to 10, 0 no effect, 10 complete control
[9] = Postemergence, Rate 125 g/ha, scale of 0 to 10 where 0 is no effect and 10 is complete control
[10] = Rate 62 g/ha, Postemergence, scale of 0 to 10 where 0 is no effect and 10 is complete control
[11] = Rate 250 g/ha, Postemergence, scale 0 to 10, 0 is no effect, 10 is complete control
[12] = Preemergence, Rate 125 g/ha, 0 is no effect, 10 is complete control
[13] = Preemergence, scale of 0 to 10 where 0 is no effect and 10 is complete control
[14] = Postemergence, scale 0 to 10, 0 is no effect, 10 is complete control

C=CCn1c(=O)on(C(=O)N(c2ccc(Cl)cc2)C(C)C)c1=O [Compound 105]
Bedstraw plant response rating (bedstraw; [1]): 0
Bedstraw plant response rating (bedstraw; [2]): 2
Bedstraw plant response rating (bedstraw; [3]): 0
Plant response rating, Bedstraw (bedstraw; [4]): 0
Plant response rating, Bedstraw (bedstraw; [5]): 0
Bedstraw plant response rating (bedstraw; [6]): 5
Bedstraw plant response rating (bedstraw; [7]): 0
Bedstraw plant response rating (bedstraw; [8]): 3
Blackgrass plant response rating (blackgrass; [9]): 6
Blackgrass plant response rating (blackgrass; [2]): 7
Blackgrass plant response rating (blackgrass; [3]): 5
Plant response rating, Blackgrass (blackgrass; [4]): 7
Plant response rating, Blackgrass (blackgrass; [5]): 8
Blackgrass plant response rating (blackgrass; [6]): 10
Blackgrass plant response rating (blackgrass; [10]): 2
Blackgrass plant response rating (blackgrass; [8]): 8
B. signalgrass plant response rating (surinam grass; [1]): 0
B. signalgrass plant response rating (surinam grass; [2]): 3
B. signalgrass plant response rating (surinam grass; [3]): 0
Plant response rating, B. signalgrass (surinam grass; [4]): 1
Plant response rating, B. signalgrass (surinam grass; [5]): 5
B. signalgrass plant response rating (surinam grass; [6]): 10
B. signalgrass plant response rating (surinam grass; [7]): 2
B. signalgrass plant response rating (surinam grass; Rate 500 g/ha, Postemergence, scale of 0 to 10 where 0 is no effect and 10 is complete control): 3
Cocklebur plant response rating (cocklebur; [9]): 0
Cocklebur plant response rating (cocklebur; [2]): 1
Cocklebur plant response rating (cocklebur; [3]): 0
Plant response rating, Cocklebur (cocklebur; [4]): 0
Plant response rating, Cocklebur (cocklebur; [5]): 0
Cocklebur plant response rating (cocklebur; [6]): 0
Cocklebur plant response rating (cocklebur; [10]): 0
Cocklebur plant response rating (cocklebur; [8]): 4
Corn plant response rating (corn; [9]): 0
Corn plant response rating (corn; [2]): 0
Corn plant response rating (corn; [3]): 0
Plant response rating, Corn (corn; [4]): 0
Plant response rating, Corn (corn; [5]): 2
Corn plant response rating (corn; [6]): 3
Corn plant response rating (corn; [10]): 0
Corn plant response rating (corn; [8]): 2
Crabgrass plant response rating (crabgrass; [9]): 7
Crabgrass plant response rating (crabgrass; [2]): 7
Crabgrass plant response rating (crabgrass; [3]): 2
Plant response rating, Crabgrass (crabgrass; [4]): 8
Plant response rating, Crabgrass (crabgrass; [5]): 8
Crabgrass plant response rating (crabgrass; [6]): 9
Crabgrass plant response rating (crabgrass; [8]): 9
Giant foxtail plant response rating (giant foxtail; [9]): 3
Giant foxtail plant response rating (giant foxtail; [2]): 7
Giant foxtail plant response rating (giant foxtail; [3]): 10
Plant response rating, Giant foxtail (giant foxtail; [4]): 10
Plant response rating, Giant foxtail (giant foxtail; [5]): 10
Giant foxtail plant response rating (giant foxtail; [6]): 10
Giant foxtail plant response rating (giant foxtail; [10]): 2
Giant foxtail plant response rating (giant foxtail; [8]): 8
Morningglory plant response rating (morningglory; [9]): 2
Morningglory plant response rating (morningglory; [2]): 3
Morningglory plant response rating (morningglory; [3]): 0
Plant response rating, Morningglory (morningglory; [4]): 0
Plant response rating, Morningglory (morningglory; [5]): 0
Morningglory plant response rating (morningglory; [6]): 0
Morningglory plant response rating (morningglory; [8]): 4
Redroot pigweed plant response rating (pigweed; [9]): 0
Redroot pigweed plant response rating (pigweed; [3]): 0
Plant response rating, Redroot pigweed (pigweed; [4]): 3
Plant response rating, Redroot pigweed (pigweed; [5]): 9
Redroot pigweed plant response rating (pigweed; [6]): 10
Redroot pigweed plant response rating (pigweed; [10]): 0
Plant response rating, Redroot pigweed (pigweed; [11]): 0
Redroot pigweed plant response rating (pigweed; [8]): 3
Rape plant response rating (rape; [9]): 0
Rape plant response rating (rape; [2]): 0
Rape plant response rating (rape; [3]): 0
Plant response rating, Rape (rape; [4]): 1
Plant response rating, Rape (rape; [5]): 4
Rape plant response rating (rape; [6]): 6
Rape plant response rating (rape; [10]): 0
Rape plant response rating (rape; [8]): 2
Soybean plant response rating (soybean; [9]): 1
Soybean plant response rating (soybean; [3]): 0
Plant response rating, Soybean (soybean; [4]): 0
Plant response rating, Soybean (soybean; [5]): 0
Soybean plant response rating (soybean; [6]): 0
Soybean plant response rating (soybean; [10]): 1
Plant response rating, Soybean (soybean; [11]): 3
Soybean plant response rating (soybean; [8]): 6
Velvetleaf plant response rating (velvetleaf; [9]): 0
Velvetleaf plant response rating (velvetleaf; [3]): 0
Velvetleaf plant response rating (0 to 10 scale) (velvetleaf; [12]): 4
Plant response rating, Velvetleaf (velvetleaf; [13]): 5
Velvetleaf plant response rating (velvetleaf; [6]): 6
Velvetleaf plant response rating (velvetleaf; [10]): 0
Plant response rating, Velvetleaf (velvetleaf; [14]): 3
Velvetleaf plant response rating (velvetleaf; [8]): 4
Wheat plant response rating (wheat; [9]): 0
Wheat plant response rating (wheat; [3]): 0
Wheat plant response rating (0 to 10 scale) (wheat; [12]): 0
Plant response rating, Wheat (wheat; [13]): 0
Wheat plant response rating (wheat; [6]): 2
Wheat plant response rating (wheat; [10]): 0
Plant response rating, Wheat (wheat; [14]): 0
Wheat plant response rating (wheat; [8]): 2
Wild oats plant response rating (wild oat; [9]): 0
Wild oats plant response rating (wild oat; [3]): 2
Wild oats plant response rating (0 to 10 scale) (wild oat; [12]): 3
Plant response rating, Wild oats (wild oat; [13]): 3
Wild oats plant response rating (wild oat; [6]): 9
Wild oats plant response rating (wild oat; [10]): 0
Plant response rating, Wild oats (wild oat; [14]): 2
Wild oats plant response rating (wild oat; [8]): 4
Nutsedge plant response rating (purple nutsedge; [9]): 0
Nutsedge plant response rating (purple nutsedge; [2]): 0
Nutsedge plant response rating (purple nutsedge; [3]): 0
Plant response rating, Nutsedge (purple nutsedge; [4]): 0
Plant response rating, Nutsedge (purple nutsedge; [5]): 0
Nutsedge plant response rating (purple nutsedge; [6]): 0
Nutsedge plant response rating (purple nutsedge; [10]): 0
Nutsedge plant response rating (purple nutsedge; [8]): 2
